Measurements: patent US20230067910A1, “NOVEL COMPOUNDS FOR THE DIAGNOSIS, TREATMENT AND PREVENTION OF DISEASES ASSOCIATED WITH THE AGGREGATION OF ALPHA-SYNUCLEIN” (MODAG GMBH, priority 2019, published 2023)

These compounds were tested against T1, alpha-synuclein (sonicated fibrils) (Homo sapiens, UniProt P37840) (assay: Modified competition binding assay, protocol 3b, reference ligand [3H]-compound 2). Conditions: Table 5, reference ligand [3H]-compound 2 (1 nM).
T1 construct: made in house; host or cells: E. coli
Description: Alpha-synuclein and tau46 were purified from E. coli according to established protocols (Nuscher B, et al., J. Biol. Chem., 2004; 279(21):21966-75), Aβ1-42 was obtained from rPeptide, Watkinsville, Ga., USA. Fibrils were prepared by aggregation of recombinant protein via constant agitation. In detail, 70 μM of alpha-synuclein mixed with 100 mM NaCl in 50 mM Tris, pH 7.0+0.02% NaN3 were incubated at 1,400 rpm, 37° C. for 96 h. 10 μM of tau46 were incubated with 0.03 mg/ml heparin in 50 mM Tris, pH=7.0 at 1,000 rpm, 37° C. for 72 h. Aβ1-42 was solved in 20 mM NaPi, pH=8.0+0.2 mM EDTA+0.02% NaN3 (Deeg A A, et al., Biochim. Biophys. Acta, 2015; 1850(9): 1884-90; Goedert M, et al. Nature, 1996; 383(6600): 550-3).
For competition binding experiments, a fixed concentration of recombinant αSYN fibrils (sonicated, 15 nM/well) was incubated with 1 nM [^3H]-compound 1 or [3H]-compound 2 and decreasing concentrations of a serial dilution of non-labeled competitor (serial dilution 1:4 or 1:3.5 or 1:3 providing the concentration ranges of non-labeled competitor 1 μM-[…] 1 μM-4 nM or 1 μM-[…], respectively) in 30 mM Tris-HCl, 10% ethanol, 0.05% Tween20, pH 7.4 in a total volume of 200 μL/well. Plates were incubated for 4.5 hours at RT covered by removable sealing tape (PerkinElmer, Waltham, Mass., USA).
Filtration and readout were performed as described for saturation binding assays. [^3H]-labeled ligand binding [in CMP] was plotted against increasing competitor concentrations and data points were fitted using non-linear regression analysis to calculate the IC50 and Ki values (GraphPad Software, Inc., Version 7.03, La Jolla (Calif.), USA). In the competition binding assay with sonicated recombinant αSYN fibrils, the calculation of Ki values was done based on KD values of 0.6 nM and 0.2 nM for compound 1 and compound 2, respectively.
The fibril competition assay provides Ki values. Ki is a quantitative measure that represents the concentration of the non-radioactive tested compound (competitor ligand) required to replace 50% of a reference compound, in this case [H]-compound 1 (1 nM) or [H]-compound 2 (1 nM), which is bound to the target structures (1 nM), in our case recombinant alpha-synuclein and tau46 fibrils. This assay is suitable for a screening of non-radioactive ligands.

| Ki | Compound |
| --- | --- |
| 59 nM | Clc1cc(-c2cc(-c3ccc4c(c3)OCO4)n[nH]2)c(Cl)nn1 [Compound 48, 4-[5-(1,3-benzodioxol-5-yl)-1H-pyrazol-3-yl]-3,6-dichloropyridazine] |
| 113 nM | CNc1ccc(-c2cc(-c3cc(C)nc(Br)c3)[nH]n2)cc1 [Compound 38, 4-[5-(2-bromo-6-methylpyridin-4-yl)-1H-pyrazol-3-yl]-N-methylaniline] |
| 0.5 nM | CN(C)c1ccc(-c2cc(-c3cc(Cl)ncn3)[nH]n2)cc1 [Compound 43, 4-[5-(6-chloropyrimidin-4-yl)-1H-pyrazol-3-yl]-N,N-dimethylaniline] |
| 3.9 nM | CNc1ccc(-c2cc(-c3ccnc(Cl)n3)[nH]n2)cc1 [Compound 40, 4-[5-(2-chloropyrimidin-4-yl)-1H-pyrazol-3-yl]-N-methylaniline] |
| 0.7 nM | FCCNc1ccc(-c2cc(-c3ccnc(Br)c3)[nH]n2)cc1 [Compound 25, 4-[5-(2-bromopyridin-4-yl)-1H-pyrazol-3-yl]-N-(2-fluoroethyl)aniline] |
| 13 nM | CN(C)c1ccc(-c2c[nH]c(-c3ccnc(Br)c3)n2)cc1 [Compound 31, 4-[2-(2-bromopyridin-4-yl)-1H-imidazol-4-yl]-N,N-dimethylaniline] |
| 1 nM | CN1CCN(c2ccc(-c3cc(-c4ccnc(Br)c4)[nH]n3)cc2)CC1 [Compound 26, 1-{4-[5-(2-bromopyridin-4-yl)-1H-pyrazol-3-yl]phenyl}-4-methylpiperazine] |
| 23 nM | 4-[5-(2,6-dichloropyridin-4-yl)-1H-pyrazol-3-yl]-N,N-dimethylaniline [Compound 42] |
| 97 nM | Cc1cc(-c2cc(-c3ccc4c(c3)OCO4)n[nH]2)cc(Br)n1 [Compound 47, 4-[3-(1,3-benzodioxol-5-yl)-1H-pyrazol-5-yl]-2-bromo-6-methylpyridine] |
| 0.3 nM | [2H]C([2H])([2H])Nc1ccc(-c2cc(-c3ccnc(Br)c3)[nH]n2)cc1 [Compound 21, 4-[5-(2-bromopyridin-4-yl)-1H-pyrazol-3-yl]-N-(^2H3)methylaniline] |
| 3.1 nM | FC1CCN(c2ccc(-c3cc(-c4ccnc(Br)c4)[nH]n3)cc2)CC1 [Compound 52, 2-bromo-4-{3-[4-(4-fluoropiperidin-1-yl)phenyl]-1H-pyrazol-5-yl}pyridine] |
| 0.8 nM | CN(C)c1ccc(-c2cc(-c3ccnc(Cl)c3)[nH]n2)cc1 [Compound 53, 4-[5-(2-chloropyridin-4-yl)-1H-pyrazol-3-yl]-N,N-dimethylaniline] |
| 61 nM | Fc1cc(-c2cc(-c3ccc(N4CCNCC4)cc3)n[nH]2)ccn1 [Compound 49, 1-{4-[5-(2-fluoropyridin-4-yl)-1H-pyrazol-3-yl]phenyl}piperazine] |
| 41 nM | Brc1cccc(-c2cc(-c3cnc4c(c3)OCO4)n[nH]2)c1 [Compound 34, 6-[5-(3-bromophenyl)-1H-pyrazol-3-yl]-1,3-dioxolo[4,5-b]pyridine] |
| 168 nM | Clc1cc(-c2nc(-c3ccc(N4CCCC4)cc3)c[nH]2)ccn1 [Compound 35, 2-chloro-4-{4-[4-(pyrrolidin-1-yl)phenyl]-1H-imidazol-2-yl}pyridine] |
| 4.2 nM | Clc1c(-c2ccc3c(c2)OCO3)n[nH]c1-c1ccnc(Br)c1 [Compound 28, 4-[3-(1,3-benzodioxol-5-yl)-4-chloro-1H-pyrazol-5-yl]-2-bromopyridine] |
| 0.8 nM | CNc1ccc(-c2cc(-c3ccnc(F)c3)[nH]n2)cc1 [Compound 24, 4-[5-(2-fluoropyridin-4-yl)-1H-pyrazol-3-yl]-N-methylaniline] |

| Ki | Compound |
| --- | --- |
| 0.5 nM | CCNc1ccc(-c2cc(-c3ccnc(Br)c3)[nH]n2)cc1 [Compound 23, 4-[5-(2-bromopyridin-4-yl)-1H-pyrazol-3-yl]-N-ethylaniline] |
| 1.2 nM | FC1CN(c2ccc(-c3cc(-c4ccnc(Cl)c4)[nH]n3)cc2)C1 [Compound 55, 2-chloro-4-{3-[4-(3-fluoroazetidin-1-yl)phenyl]-1H-pyrazol-5-yl}pyridine] |
| 12 nM | Brc1cc(-c2nc(-c3ccc4c(c3)OCO4)n[nH]2)ccn1 [Compound 30, 4-[3-(1,3-benzodioxol-5-yl)-1H-1,2,4-triazol-5-yl]-2-bromopyridine] |
| 33 nM | Brc1cc(-c2nc(-c3ccc4c(c3)OCO4)c[nH]2)ccn1 [Compound 33, 4-[4-(1,3-benzodioxol-5-yl)-1H-imidazol-2-yl]-2-bromopyridine] |
| 12 nM | CNc1ccc(-c2cc(-c3cncc(Cl)n3)[nH]n2)cc1 [Compound 36, 4-[5-(6-chloropyrazin-2-yl)-1H-pyrazol-3-yl]-N-methylaniline] |
| 4.2 nM | CNc1ccc(-c2cc(-c3cnnc(Cl)c3)[nH]n2)cc1 [Compound 39, 4-[5-(6-chloropyridazin-4-yl)-1H-pyrazol-3-yl]-N-methylaniline] |
| 2.7 nM | COCCN1CCN(c2ccc(-c3cc(-c4ccnc(Br)c4)[nH]n3)cc2)CC1 [Compound 51, 1-{4-[5-(2-bromopyridin-4-yl)-1H-pyrazol-3-yl]phenyl}-4-(2-methoxyethyl)piperazine] |
| 0.3 nM | CNc1ccc(-c2cc(-c3ccnc(Cl)c3)[nH]n2)cc1 [Compound 22, 4-[5-(2-chloropyridin-4-yl)-1H-pyrazol-3-yl]-N-methylaniline] |
| 14 nM | CNc1ccc(-c2cc(-c3cccc(Cl)n3)[nH]n2)cc1 [Compound 41, 4-[5-(6-chloropyridin-2-yl)-1H-pyrazol-3-yl]-N-methylaniline] |
| 0.2 nM | CN(C)c1ccc(-c2nc(-c3ccnc(Br)c3)c[nH]2)cc1 [Compound 45, 4-[4-(2-bromopyridin-4-yl)-1H-imidazol-2-yl]-N,N-dimethylaniline] |
| 0.6 nM | CN(C)c1ccc(-c2nc(-c3ccnc(Br)c3)n[nH]2)cc1 [Compound 44, 4-[3-(2-bromopyridin-4-yl)-1H-1,2,4-triazol-5-yl]-N,N-dimethylaniline] |
| 0.9 nM | FCCN1CCN(c2ccc(-c3cc(-c4ccnc(Cl)c4)[nH]n3)cc2)CC1 [Compound 50, 1-{4-[5-(2-chloropyridin-4-yl)-1H-pyrazol-3-yl]phenyl}-4-(2-fluoroethyl)piperazine] |
| 6.3 nM | Brc1cc(-c2c[nH]c(-c3ccc4c(c3)OCO4)n2)ccn1 [Compound 29, 4-[2-(1,3-benzodioxol-5-yl)-1H-imidazol-4-yl]-2-bromopyridine] |
| 16 nM | CNc1ccc(-c2cc(-c3cc(Br)nc(Br)c3)[nH]n2)cc1 [Compound 37, 4-[5-(2,6-dibromopyridin-4-yl)-1H-pyrazol-3-yl]-N-methylaniline] |
| 1.3 nM | Fc1cc(-c2cc(-c3ccc(N4CCOCC4)cc3)n[nH]2)ccn1 [Compound 27, 4-{4-[5-(2-fluoropyridin-4-yl)-1H-pyrazol-3-yl]phenyl}morpholine] |
| 8.4 nM | Fc1ccnc(-c2cc(-c3ccc4c(c3)OCO4)n[nH]2)c1 [Compound 54, 2-[3-(1,3-benzodioxol-5-yl)-1H-pyrazol-5-yl]-4-fluoropyridine] |

| Compound | Ki |
| --- | --- |
| 6-[5-(2-bromopyridin-4-yl)-1H-pyrazol-3-yl]-1,3-dioxolo[4,5-b]pyridine [Compound 32] | 18 nM |
